How the values were obtained:
[1] = tested on: PR3; assay: PD onset study, bone marrow PR3 activity, C57BL/6 mice; type: in vivo; conditions: for Percent change from vehicle PR3: bone marrow, 5 mg/kg BID oral
Procedure: A 14-day PD onset study was performed in female C57BL/6 mice dosed BID. Mice were dosed by oral gavage either with vehicle (0 mg/kg) or 5 mg/kg brensocatib (BID; 10 mg/kg/day) for 1, 4, 7, 10, or 14 consecutive days. Plasma was collected from animals during the first 24 h of dosing at 1, 2, 8, 9, 10, and 24 h post the initial dose. Note the 8- and 24-h plasma samples were prior to the afternoon dose and the second day dose (if applicable), respectively. Plasma was used for PK analysis via LC-MS/MS. On prescribed days, animals were sacrificed 16 h post final dose, and the hind bones (femurs and tibias) were collected at necropsy for bone marrow analysis of NSP activities by kinetic enzymatic assays.
For the mice, each animal had the femurs and tibias of both hind limbs harvested. For the rat, the femur and tibia from a single hind limb per animal was harvested. Bones were kept on wet ice until processing for bone marrow collection. In brief, bone cutters were used to cut the epiphysis (knobby ends) off the long bones to expose the bone marrow filled cavity. Each bone cavity was then flushed with 5 mL/bone (mouse) or 10 mL/bone (rat) of ice-cold RPMI media through a […] and collected in a 50-mL conical tube. Cells were spun down at 2,500 × g at 4°C for 5 min and the supernatant was aspirated. After which, bone marrow cells were lysed with 1X red blood cell (RBC) lysis buffer (Abcam, ab204733) to eliminate contaminating RBCs and washed with PBS to remove any residual RBC lysis buffer. The resulting white blood cells (WBC) were subsequently lysed with 1% (v/v) Triton X-100 in PBS. Lysates were added to 96-well plates and stored at −80°C until NSP analyses.
Bone marrow lysates prepared as described above were diluted and plated onto 96-well assay plates to quantify NSP activities as described previously ([Basso et al., 2022]). Briefly, peptide substrates for NE (N-Methoxysuccinyl-Ala-Ala-Pro-Val-7-amido-4-methylcoumarin; Sigma; St. Louis, MO; Excitation/Emission at 350/450 nm), PR3 ((7-Methoxycoumarin-4-yl)acetyl-lysyl-(picolinoyl)-Tyr-Asp-Ala-Lys-Gly-Asp-N-3-(2-4-dinitrophenyl)-2-3-diaminopropyonyl-NH2); GenScript; Piscataway, NJ; Excitation/Emission at 340/430 nm), and CatG (N-Succinyl-Ala-Ala-Pro-Phe p nitroanilide; Sigma; Absorbance at 405 nm) were added at a final assay concentration of 100 μM, 40 μM, and 200 μM, respectively, and either fluorescence or absorbance was quantified using a Synergy microplate reader (BioTek; Winooski, VT). The specific NSP activity in each sample was calculated as the total activity minus the activity in the presence of a specific NSP inhibitor (if used), including elastase inhibitor (Abcam) for NE, sivelestat (Abcam) for PR3, and cathepsin G inhibitor I (Cayman Chemical; Ann Arbor, MI) for CatG. NSP concentrations were interpolated based on their activities relative to the standard curves created using active human NE protein (Sigma), active human PR3 protein (Sigma), and active human CatG protein (Sigma), respectively. Due to unavailability of commercial mouse and/or rat NE, PR3, and CatG proteins, the corresponding human proteins were used instead since their catalytic ability is considered to be conserved across species. A portion of each cell lysate sample was retained for protein quantification using a Pierce™ BCA Protein Assay Kit (Thermo Fisher). The NSP activities were normalized for the cell lysate protein concentrations.
The Pierce™ BCA Protein Assay Kit was used to measure the total protein of the samples after lysis to allow for subsequent normalization. The manufacturer’s instructions for use were followed when performing this assay on a portion of the sample lysates which were diluted in PBS, the same diluent as used for preparation of the standard. Plates were read on the Biotek Synergy plate reader with Gen5 software.

[2] = tested on: NE; set-up: method as in Chalmers et al., 2020; conditions: Phase 2 trial in NCFBE (WILLOW, NCT03218917), vs placebo; ref Chalmers et al., 2020; cited from earlier work
[3] = 5 mg/kg BID, curve fit with free min and max

Structure (SMILES): Cn1c(=O)oc2ccc(-c3ccc(C[C@@H](C#N)NC(=O)[C@@H]4CNCCCO4)cc3)cc21 [brensocatib]
- Onset: Maximum reduction (plateau), PR3 [1, 3]: 76%
- Onset: Time to reach 50% reduction, PR3 [1, 3]: 4.5 days
- Onset: Time to reach max reduction, PR3 [1, 3]: 8.0 days
- Percent change from vehicle PR3 ([1]; after 1 day of treatment): −5% (p = 0.9972)
- Percent change from vehicle PR3 ([1]; after 4 days of treatment): −43% (p = 0.0236)
- Percent change from vehicle PR3 ([1]; after 7 days of treatment): −85% (p < 0.0001)
- Percent change from vehicle PR3 ([1]; after 10 days of treatment): −71% (p < 0.0001)
- Percent change from vehicle PR3 ([1]; after 14 days of treatment): −81% (p < 0.0001)
- sputum NE activity [2]: dose-dependent reduction
